# Results taken from publication PMC4303209, “A novel phosphatidylinositol 3-kinase (PI3K) inhibitor directs a potent FOXO-dependent, p53-independent cell cycle arrest phenotype characterized by the differential induction of a subset of FOXO-regulated genes” (Breast Cancer Research : BCR, 2014).
# Tested on: MCF-7 breast cancer cells
# Experiment: Microarray gene expression analysis (Agilent whole human genome 4 x 44K; compound vs DMSO, LIMMA log2 fold change)
# Assay type: cell-based
# Details: Apoptosis genes
smiles,measurement,setting,value
Cn1ncc2c(N3CCOCC3)nc(-c3cccc(O)c3)nc21 [ETP-45658],ITGB3BP log2FC,Gene 23421,0.773
same,RYBP log2FC,Gene 23429,0.520
same,HEY2 log2FC,Gene 23493,-0.060
same,SCRIB log2FC,Gene 23513,-0.165
same,CLCF1 log2FC,Gene 23529,-0.993
same,PRAME log2FC,Gene 23532,-0.401
same,DDAH2 log2FC,Gene 23564,0.126
same,ZNF346 log2FC,Gene 23567,0.167
same,CASP14 log2FC,Gene 23581,-0.095
same,NUP62 log2FC,Gene 23636,-0.576
same,PPP1R15A log2FC,Gene 23645,1.011
same,AIPL1 log2FC,Gene 23746,-0.252
same,FKBP8 log2FC,Gene 23770,-0.132
same,BCL2L13 log2FC,Gene 23786,0.179
same,MTCH1 log2FC,Gene 23787,0.077
same,NGEF log2FC,Gene 25791,0.588
same,SPDEF log2FC,Gene 25803,-0.326
same,TNFAIP8 log2FC,Gene 25816,0.706
same,PRDX5 log2FC,Gene 25824,-0.074
same,BRMS1 log2FC,Gene 25855,-0.580
same,SIN3A log2FC,Gene 25942,0.788
same,HIGD1A log2FC,Gene 25994,0.198
same,SERBP1 log2FC,Gene 26135,0.313
same,NOC2L log2FC,Gene 26155,-0.773
same,TIAM2 log2FC,Gene 26230,0.410
same,AATF log2FC,Gene 26574,-0.362
same,GREM1 log2FC,Gene 26585,-0.311
same,CKAP2 log2FC,Gene 26586,0.829
same,CYFIP2 log2FC,Gene 26999,-0.154
same,NGFRAP1 log2FC,Gene 27018,0.134
same,ANKRD1 log2FC,Gene 27063,0.342
same,GHITM log2FC,Gene 27069,0.501
same,BBC3 log2FC,Gene 27113,2.148
same,CIDEB log2FC,Gene 27141,-0.076
same,GLS2 log2FC,Gene 27165,0.175
same,TNFRSF21 log2FC,Gene 27242,-1.178
same,PDCD4 log2FC,Gene 27250,1.281
same,KLHL20 log2FC,Gene 27252,0.174
same,CECR2 log2FC,Gene 27443,-0.568
same,DBNL log2FC,Gene 28988,-0.399
same,HIPK2 log2FC,Gene 28996,-0.166
same,SAP30BP log2FC,Gene 29115,-0.314
same,LGALS13 log2FC,Gene 29124,-0.151
same,CARD10 log2FC,Gene 29775,-0.324
same,SENP1 log2FC,Gene 29843,0.416
same,TFPT log2FC,Gene 29844,-0.708
same,PNMA3 log2FC,Gene 29944,0.559
same,UBQLN1 log2FC,Gene 29979,0.311
same,ERO1L log2FC,Gene 30001,0.255
same,SH3KBP1 log2FC,Gene 30011,0.491
same,KCNIP3 log2FC,Gene 30818,0.159
same,RRM2B log2FC,Gene 50484,0.508
same,G0S2 log2FC,Gene 50486,-0.063
same,NOX4 log2FC,Gene 50507,-0.318
same,CHST11 log2FC,Gene 50515,-0.798
same,ARHGEF4 log2FC,Gene 50649,0.114
same,ARHGEF3 log2FC,Gene 50650,0.584
same,GLRX2 log2FC,Gene 51022,-0.287
same,RPS27L log2FC,Gene 51065,0.265
same,APIP log2FC,Gene 51074,0.142
same,NDUFA13 log2FC,Gene 51079,-0.190
same,GAL log2FC,Gene 51083,-0.531
same,SH3GLB1 log2FC,Gene 51100,0.592
same,APH1A log2FC,Gene 51107,-0.202
same,UTP11L log2FC,Gene 51118,-0.844
same,IER3IP1 log2FC,Gene 51124,0.463
same,ANGPTL4 log2FC,Gene 51129,-0.967
same,ING4 log2FC,Gene 51147,1.465
same,LEF1 log2FC,Gene 51176,-0.842
same,BFAR log2FC,Gene 51283,0.564
same,PLAC8 log2FC,Gene 51316,-0.141
same,TNFRSF12A log2FC,Gene 51330,-0.850
same,ANGPT4 log2FC,Gene 51378,-0.106
same,DDX41 log2FC,Gene 51428,-0.212
same,GULP1 log2FC,Gene 51454,1.616
same,TRIAP1 log2FC,Gene 51499,-0.820
same,ZC3HC1 log2FC,Gene 51530,0.230
same,PIAS4 log2FC,Gene 51588,-0.216
same,PIGT log2FC,Gene 51604,0.174
same,TAF9B log2FC,Gene 51616,0.427
same,PTRH2 log2FC,Gene 51651,-0.336
same,WWOX log2FC,Gene 51741,-0.809
same,SIX4 log2FC,Gene 51804,0.564
same,IL20RA log2FC,Gene 53832,0.097
same,CYCS log2FC,Gene 54205,-0.446
same,WNT4 log2FC,Gene 54361,-0.709
same,DNAJC10 log2FC,Gene 54431,0.727
same,ZFAND6 log2FC,Gene 54469,0.430
same,ADAMTSL4 log2FC,Gene 54507,-0.301
same,DDIT4 log2FC,Gene 54541,-0.893
same,ING3 log2FC,Gene 54556,0.777
same,RRN3 log2FC,Gene 54700,-0.293
same,AHI1 log2FC,Gene 54806,0.585
same,QRICH1 log2FC,Gene 54870,-0.061
same,TMEM161A log2FC,Gene 54929,-0.567
same,PHIP log2FC,Gene 55023,1.243
same,USP47 log2FC,Gene 55031,0.762
same,OXR1 log2FC,Gene 55074,0.502
same,UACA log2FC,Gene 55075,0.817
same,IFT57 log2FC,Gene 55081,0.552
same,XKR8 log2FC,Gene 55113,0.287
same,SHQ1 log2FC,Gene 55164,-0.250
same,FAIM log2FC,Gene 55179,0.209
same,MAP1S log2FC,Gene 55201,-0.375
same,ATAD3A log2FC,Gene 55210,-0.394
same,STEAP3 log2FC,Gene 55240,-0.569
same,RHOT1 log2FC,Gene 55288,0.620
same,RFK log2FC,Gene 55312,0.519
same,PARL log2FC,Gene 55486,-0.133
same,TNFRSF19 log2FC,Gene 55504,-0.110
same,CCAR1 log2FC,Gene 55749,0.836
same,PCID2 log2FC,Gene 55795,0.322
same,RNF130 log2FC,Gene 55819,0.142
same,EAF2 log2FC,Gene 55840,0.438
same,PSENEN log2FC,Gene 55851,-0.304
same,BCAP29 log2FC,Gene 55973,0.449
same,TEX11 log2FC,Gene 56159,-0.066
same,CTNNBL1 log2FC,Gene 56259,-0.141
same,DIABLO log2FC,Gene 56616,-0.193
same,ASAH2 log2FC,Gene 56624,-0.191
same,TRIM39 log2FC,Gene 56658,-0.084
same,BARHL1 log2FC,Gene 56751,-0.269
same,FMN2 log2FC,Gene 56776,0.105
same,SPHK2 log2FC,Gene 56848,-0.628
same,C8orf4 log2FC,Gene 56892,-0.080
same,MEIS3 log2FC,Gene 56917,-0.061
same,DUSP22 log2FC,Gene 56940,0.419
same,CIAPIN1 log2FC,Gene 57019,-0.388
same,PCBP4 log2FC,Gene 57060,-0.519
same,AVEN log2FC,Gene 57099,-0.627
same,CAMK1D log2FC,Gene 57118,-0.141
same,RTN4 log2FC,Gene 57142,0.129
same,PAK7 log2FC,Gene 57144,0.396
same,BIRC6 log2FC,Gene 57448,0.155
same,TAOK1 log2FC,Gene 57551,0.386
same,SEMA6A log2FC,Gene 57556,-0.108
same,SH3RF1 log2FC,Gene 57630,-0.399
same,USP28 log2FC,Gene 57646,0.268
same,GPAM log2FC,Gene 57678,0.310
same,CHD8 log2FC,Gene 57680,-0.199
same,TRIB3 log2FC,Gene 57761,0.343
same,NGB log2FC,Gene 58157,-0.410
same,RBM25 log2FC,Gene 58517,0.406
same,SAV1 log2FC,Gene 60485,0.676
same,PROK2 log2FC,Gene 60675,-0.050
same,ELMO2 log2FC,Gene 63916,0.581
same,CIDEC log2FC,Gene 63924,0.346
same,FIGNL1 log2FC,Gene 63979,-0.206
same,PERP log2FC,Gene 64065,0.653
same,MOAP1 log2FC,Gene 64112,1.318
same,RRAGC log2FC,Gene 64121,1.860
same,IFIH1 log2FC,Gene 64135,0.885
same,ZMAT3 log2FC,Gene 64393,-0.105
same,ATG3 log2FC,Gene 64422,0.283
same,SUDS3 log2FC,Gene 64426,-0.126
same,MICAL1 log2FC,Gene 64780,-0.454
same,PLEKHG2 log2FC,Gene 64857,-0.832
